For one compound, IC50 results are on record in patent US20060276465A1, “1,2-di(cyclic) substituted benzene compounds” (Eisai R&D Management Co., Ltd., priority 2003, published 2006).

This experiment concerns human peripheral blood neutrophils. In words: Human peripheral blood neutrophil adhesion system (adhesion to immobilized HUVEC, PMA-stimulated). It counts as cell-based. The following applies: 0.75 h, concentration inhibiting by 50% the PMA-stimulated increase in the number of adhered BCECF-AM labeled neutrophils on HUVEC immobilized plate, 45 minutes, 37° C. On the procedure: Evaluation of Compounds in Human Peripheral Blood Neutrophil Adhesion System
<Preparation of Human Peripheral Blood Neutrophils>
To a plastic centrifugation tube containing 100 units of heparin sodium (Shimizu Pharmaceutical) was added 25 ml of fresh blood sampled from a healthy human. After adding and mixing therewith 8 ml of physiological saline (Otsuka Pharmaceutical) containing 6% Dextran (Nacalai), the mixture was allowed to stand at room temperature for 45 minutes for sedimentation of the erythrocytes. The resultant supernatant was transferred to another plastic centrifugation tube and combined with an equivalent volume of phosphate-buffered saline (hereinafter abbreviated as PBS; Sigma), and then centrifuged at 1600 rpm for 7 minutes at room temperature. The obtained hematocyte fraction was suspended in 4 ml of PBS, and the suspension was superposed on 4 ml of Ficoll-Paque™ PLUS (Amersham Biosciences). The resultant bilayer liquid was centrifuged at 2000 rpm for 30 minutes at room temperature, after which the supernatant was removed and the precipitate was suspended in 10 ml of PBS and centrifuged at 1200 rpm for 7 minutes, and the supernatant was removed. The resulting precipitate was suspended in 0.5 ml of PBS again, and then 10 ml of distilled water (Otsuka Pharmaceutical) was added, 0.5 ml of an aqueous solution containing 3 M NaCl was immediately added to restore isotonicity, the mixture was centrifuged at 1200 rpm for 7 minutes, and the obtained precipitate was suspended in PBS containing 1 mg/ml bovine serum albumin (hereinafter abbreviated as BSA; Sigma) again and stored in ice until being used for the experiment.
<Fluorescent Labeling of Human Peripheral Blood Neutrophils>
The obtained neutrophils were suspended in PBS containing 1 mg/ml BSA at 2×10^7 cells/ml. BCECF-AM (Dojin) was added to a final concentration of 5 μM, and the mixture was incubated at 37° C. for 45 minutes. It was then rinsed twice with PBS containing 1 mg/ml BSA by centrifugation, suspended again in PBS containing 1 mg/ml BSA at 5×10^7 cells/ml, and stored in ice until use.
<Preparation of HUVEC Immobilized Plate>
Human umbilical vein endothelial cells (hereinafter abbreviated as HUVEC) were suspended in MCDB131 medium (Chlorella Industries) containing 10% fetal calf serum and 30 μg/ml endothelial cell growth supplement (Becton Dickinson Bioscience). The suspension was added at 7.5×10^3 cells/well to a 96-well plate (Iwaki) immobilized with type I collagen, and cultured for 3 days in a CO2 incubator (Hirasawa). Upon confirming confluency of the cells, the supernatant was discarded, the plate was rinsed twice with PBS, and then PBS containing 0.1% glutaraldehyde (Kanto Kagaku) was added at 100 μl/well and the HUVECs were immobilized for 5 minutes. The supernatant was discarded and the plate was washed twice with PBS, and then PBS was added at 100 μl/well and the mixture was stored at 4° C. until use.
To 6.5 ml of RPMI-1640 medium (Sigma) containing 1 mg/ml of BSA were added 0.5 ml of a suspension of BCECF-AM labeled neutrophils at 5×10^7/ml stored in ice, which was mixed, and the mixture was added at 80 μl/well to a HUVEC immobilized plate. To this plate were immediately added 10 μl/well of a solution of the compound diluted at different concentrations with RPMI-1640 containing 1 mg/ml BSA, and 10 μl/well of 100 nM phorbol myristate acetate (hereinafter abbreviated as PMA; Sigma) in RPMI-1640 containing 1 mg/ml BSA, and the mixture was incubated in a CO2 incubator at 37° C. for 45 minutes. The supernatant was removed from the plate, which was then washed several times with RPMI-1640 at 100 μl/well, and then PBS containing 0.1% NP-40 (Calbiochem) was added thereto at 100 μl/well and the fluorescent intensity was measured with and ARVO™SX 1420 multi label counter (Wallac) to determine the number of adhered cells. […]

Turning to `COCCN1CCN(c2ccccc2C2CCC(C(C)(C)C)CC2)CC1.Cl` (stereo not shown) [Example 19, 1-[2-(4-t-Butylcyclohexyl)phenyl]-4-(2-methoxyethyl)piperazine hydrochloride], the IC50 (usually the point on the concentration scale where inhibition reaches its midpoint) stood at 11.6 µM.
